# Experimental data as given in US10017791B2, “Coryneform bacterium transformant and process for producing 4-hydroxybenzoic acid or salt thereof using the same” (GREEN PHENOL DEVELOPMENT CO., LTD., priority 2014, dated 2018).
# pIC50: −log10 of the molar value.
# Key:
# [1] = molecular target: chorismate-pyruvate lyase of Azotobacter vinelandii (Azotobacter vinelandii, UniProt C1DK46); test: Product inhibition of chorismate-pyruvate lyase activity by 4-HBA (IC50); assay type: biochemical; details: cell lysate supernatant of strain HBA19
# chorismate-pyruvate lyase of Azotobacter vinelandii, sequence (C1DK46 1-183): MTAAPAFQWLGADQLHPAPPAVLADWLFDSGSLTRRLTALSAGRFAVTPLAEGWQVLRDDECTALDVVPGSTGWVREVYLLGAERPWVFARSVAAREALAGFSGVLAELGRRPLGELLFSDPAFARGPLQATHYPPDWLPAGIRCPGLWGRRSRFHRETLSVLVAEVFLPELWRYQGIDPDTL
# Method: (§1) Each kind of the bacterial cells cultured and proliferated as above was collected by centrifugation (8,000 rpm, 4° C., 10 minutes). After disrupting the bacterial cells by sonication, centrifugation (15,000 rpm, 4° C., 20 minutes) was performed. Using the supernatant of the cell lysate as a crude enzyme liquid, chorismate-pyruvate lyase activity was determined by the following method. The crude enzyme liquid, 50 mM Tris-HCl (pH 7.5), 0.5 mM of chorismate Ba salt, 0.2 mM of NADH, 0.2 M of NaCl and 5 units of lactate dehydrogenase were mixed, the reaction was allowed to proceed at 33° C., and the decrease in absorbance of NADH at 340 nm was monitored to analyze the initial rate of the reaction. From the initial rate of the reaction and the protein concentration, the specific activity was calculated (the amount of the enzyme that produces 1 μmol of 4-HBA per minute was defined as 1 unit). (After the reaction mixture was filtered, the resulting 4-HBA was subjected to HPLC for direct detection of the peak of 4-HBA (Cosmosil C18 ARII made by Nacalai Tesque, mobile phase: 20% methanol and 0.07% perchloric acid) to separately confirm that the two assay methods were similar in quantitative performance.)
# (§2) Using the supernatants of the cell lysates of the strains of HBA-1 to HBA-21 prepared in Example 2, inhibition by the product, 4-HBA, was examined.
# [2] = molecular target: chorismate-pyruvate lyase of Citrobacter koseri (Citrobacter koseri, UniProt A8AN89); test: as above; assay type: biochemical; details: cell lysate supernatant of strain HBA14
# chorismate-pyruvate lyase of Citrobacter koseri, sequence (A8AN89 whole entry, looked up): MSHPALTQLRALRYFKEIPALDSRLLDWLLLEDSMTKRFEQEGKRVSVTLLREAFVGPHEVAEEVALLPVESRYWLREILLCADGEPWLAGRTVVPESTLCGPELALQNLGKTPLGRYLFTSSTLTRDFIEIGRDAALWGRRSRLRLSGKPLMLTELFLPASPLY
# Method: as §1, §2
# [3] = molecular target: T1, chorismate-pyruvate lyase of Cronobacter sakazakii (Cronobacter sakazakii, UniProt A7MPN9); test: as above; assay type: biochemical; details: cell lysate supernatant of strain HBA12
# T1 construct: 5′-[…]-3′
# T1 sequence (A7MPN9 whole entry, looked up): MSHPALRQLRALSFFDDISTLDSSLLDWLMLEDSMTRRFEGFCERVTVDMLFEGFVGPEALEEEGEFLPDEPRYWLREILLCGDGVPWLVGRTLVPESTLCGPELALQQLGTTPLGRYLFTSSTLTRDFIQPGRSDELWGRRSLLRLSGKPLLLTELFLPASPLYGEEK
# Method: as §1, §2
# [4] = molecular target: chorismate-pyruvate lyase of Cupriavidus taiwanensis (Cupriavidus taiwanensis, UniProt B3R6T5); test: as above; assay type: biochemical
# chorismate-pyruvate lyase of Cupriavidus taiwanensis, sequence (B3R6T5 entry or part of it): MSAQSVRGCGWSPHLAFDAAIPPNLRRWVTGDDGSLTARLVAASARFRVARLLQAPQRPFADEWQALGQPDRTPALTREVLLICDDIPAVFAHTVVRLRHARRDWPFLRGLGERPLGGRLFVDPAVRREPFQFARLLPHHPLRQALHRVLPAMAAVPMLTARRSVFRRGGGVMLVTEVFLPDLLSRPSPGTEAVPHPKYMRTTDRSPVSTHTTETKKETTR
# Method: as §1, §2
# [5] = molecular target: chorismate-pyruvate lyase of Enterobacter aerogenes (Klebsiella aerogenes, UniProt A0A0H3FPH2); test: as above; assay type: biochemical; details: cell lysate supernatant of strain HBA15
# chorismate-pyruvate lyase of Enterobacter aerogenes, sequence (A0A0H3FPH2 entry or part of it): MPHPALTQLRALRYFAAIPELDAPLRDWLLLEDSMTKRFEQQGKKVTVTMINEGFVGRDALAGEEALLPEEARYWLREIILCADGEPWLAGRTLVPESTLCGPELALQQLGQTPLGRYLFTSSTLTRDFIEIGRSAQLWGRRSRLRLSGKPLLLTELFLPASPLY
# Method: as §1, §2
# [6] = molecular target: chorismate-pyruvate lyase of Enterobacter cloacae (Enterobacter cloacae, UniProt A0A0H3CH24); test: as above; assay type: biochemical; details: cell lysate supernatant of strain HBA16
# chorismate-pyruvate lyase of Enterobacter cloacae, sequence (A0A0H3CH24 entry or part of it): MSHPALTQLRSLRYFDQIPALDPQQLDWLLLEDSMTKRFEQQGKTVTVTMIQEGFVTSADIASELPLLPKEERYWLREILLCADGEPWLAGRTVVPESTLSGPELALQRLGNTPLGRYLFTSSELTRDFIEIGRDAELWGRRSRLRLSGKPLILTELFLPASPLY
# Method: as §1, §2
# [7] = molecular target: T2, chorismate-pyruvate lyase of Escherichia coli (Escherichia coli, UniProt P26602); test: as above; assay type: biochemical; details: cell lysate supernatant of strain HBA8
# T2 construct: made in house; host or cells: Corynebacterium glutamicum R (crude cell-lysate supernatant)
# T2 sequence (P26602 whole entry): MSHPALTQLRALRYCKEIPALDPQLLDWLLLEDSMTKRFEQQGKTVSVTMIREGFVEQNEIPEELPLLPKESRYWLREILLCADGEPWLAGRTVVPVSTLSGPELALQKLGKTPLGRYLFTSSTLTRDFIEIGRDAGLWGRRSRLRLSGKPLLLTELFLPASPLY
# Method: as §1, §2
# [8] = molecular target: chorismate-pyruvate lyase of Escherichia fergusonii (Escherichia fergusonii, UniProt B7LL11); test: as above; assay type: biochemical; details: cell lysate supernatant of strain HBA9
# chorismate-pyruvate lyase of Escherichia fergusonii, sequence (B7LL11 entry or part of it): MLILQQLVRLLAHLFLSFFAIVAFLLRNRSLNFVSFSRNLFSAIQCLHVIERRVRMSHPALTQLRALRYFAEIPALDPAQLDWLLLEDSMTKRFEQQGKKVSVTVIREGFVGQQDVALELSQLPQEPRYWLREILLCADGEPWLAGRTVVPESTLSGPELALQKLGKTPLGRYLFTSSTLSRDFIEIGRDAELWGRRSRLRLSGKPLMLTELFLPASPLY
# Method: as §1, §2
# [9] = molecular target: chorismate-pyruvate lyase of Morganella morganii (Morganella morganii, UniProt M1SIE1); test: as above; assay type: biochemical; details: cell lysate supernatant of strain HBA18
# chorismate-pyruvate lyase of Morganella morganii, sequence (M1SIE1 entry or part of it): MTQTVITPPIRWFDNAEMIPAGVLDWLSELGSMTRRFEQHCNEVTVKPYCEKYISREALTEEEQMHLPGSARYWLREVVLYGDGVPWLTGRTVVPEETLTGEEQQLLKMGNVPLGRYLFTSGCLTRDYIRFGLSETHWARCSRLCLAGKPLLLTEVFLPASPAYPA
# Method: as §1, §2
# [10] = molecular target: chorismate-pyruvate lyase of Pantoea ananatis (Pantoea ananatis, UniProt A0ACE3JNM4); test: as above; assay type: biochemical; details: cell lysate supernatant of strain HBA1
# chorismate-pyruvate lyase of Pantoea ananatis, sequence (A0ACE3JNM4 1-170): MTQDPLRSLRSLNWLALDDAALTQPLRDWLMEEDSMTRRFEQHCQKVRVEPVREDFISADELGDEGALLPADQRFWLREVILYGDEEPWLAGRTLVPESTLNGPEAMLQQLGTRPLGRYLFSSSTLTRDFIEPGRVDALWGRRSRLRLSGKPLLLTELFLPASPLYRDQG
# Method: as §1, §2
# [11] = molecular target: chorismate-pyruvate lyase of Providencia alcalifaciens (Providencia alcalifaciens, UniProt B6XE56); test: as above; assay type: biochemical; details: cell lysate supernatant of strain HBA6
# chorismate-pyruvate lyase of Providencia alcalifaciens, sequence (B6XE56 1-167): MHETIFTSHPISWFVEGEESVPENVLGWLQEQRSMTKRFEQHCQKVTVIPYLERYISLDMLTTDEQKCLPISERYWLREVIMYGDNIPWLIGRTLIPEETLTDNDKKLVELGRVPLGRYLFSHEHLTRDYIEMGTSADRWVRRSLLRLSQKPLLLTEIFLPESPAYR
# Method: as §1, §2
# [12] = molecular target: chorismate-pyruvate lyase of Providencia burhodogranariea (Providencia burhodogranariea, UniProt K8VY45); test: as above; assay type: biochemical; details: cell lysate supernatant of strain HBA7
# chorismate-pyruvate lyase of Providencia burhodogranariea, sequence (K8VY45 entry or part of it): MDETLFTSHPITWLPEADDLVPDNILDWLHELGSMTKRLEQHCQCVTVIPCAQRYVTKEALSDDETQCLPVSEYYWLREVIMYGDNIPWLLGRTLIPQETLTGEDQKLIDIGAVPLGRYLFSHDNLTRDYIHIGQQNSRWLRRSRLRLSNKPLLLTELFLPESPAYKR
# Method: as §1, §2
# [13] = molecular target: chorismate-pyruvate lyase of Providencia rustigianii (Providencia rustigianii, UniProt D1P752); test: as above; assay type: biochemical; details: cell lysate supernatant of strain HBA2
# chorismate-pyruvate lyase of Providencia rustigianii, sequence (D1P752 1-167): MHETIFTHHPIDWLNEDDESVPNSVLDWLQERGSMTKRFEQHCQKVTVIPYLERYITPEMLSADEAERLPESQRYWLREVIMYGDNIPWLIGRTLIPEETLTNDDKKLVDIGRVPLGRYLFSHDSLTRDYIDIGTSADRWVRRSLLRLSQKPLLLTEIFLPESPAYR
# Method: as §1, §2
# [14] = molecular target: chorismate-pyruvate lyase of Providencia sneebia (Providencia sneebia, UniProt K8VZZ4); test: as above; assay type: biochemical; details: cell lysate supernatant of strain HBA4
# chorismate-pyruvate lyase of Providencia sneebia, sequence (K8VZZ4 1-168): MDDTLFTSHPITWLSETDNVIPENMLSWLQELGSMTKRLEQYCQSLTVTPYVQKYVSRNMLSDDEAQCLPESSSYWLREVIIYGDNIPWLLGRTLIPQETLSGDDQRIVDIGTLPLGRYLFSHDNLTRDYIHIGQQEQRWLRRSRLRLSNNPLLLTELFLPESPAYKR
# Method: as §1, §2
# [15] = molecular target: chorismate-pyruvate lyase of Providencia stuartii (Providencia stuartii, UniProt A0A1S1HSD5); test: as above; assay type: biochemical; details: cell lysate supernatant of strain HBA3
# chorismate-pyruvate lyase of Providencia stuartii, sequence (A0A1S1HSD5 entry or part of it): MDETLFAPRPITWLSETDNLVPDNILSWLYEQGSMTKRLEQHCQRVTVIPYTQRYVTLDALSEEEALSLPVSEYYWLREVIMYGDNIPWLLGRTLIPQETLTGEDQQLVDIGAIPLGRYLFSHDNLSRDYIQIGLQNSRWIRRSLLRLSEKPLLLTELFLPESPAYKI
# Method: as §1, §2
# [16] = molecular target: chorismate-pyruvate lyase of Pseudoalteromonas haloplanktis (Pseudoalteromonas haloplanktis, UniProt A0A9W4VR20, L6V); test: as above; assay type: biochemical
# chorismate-pyruvate lyase of Pseudoalteromonas haloplanktis, sequence (A0A9W4VR20 entry or part of it L6V): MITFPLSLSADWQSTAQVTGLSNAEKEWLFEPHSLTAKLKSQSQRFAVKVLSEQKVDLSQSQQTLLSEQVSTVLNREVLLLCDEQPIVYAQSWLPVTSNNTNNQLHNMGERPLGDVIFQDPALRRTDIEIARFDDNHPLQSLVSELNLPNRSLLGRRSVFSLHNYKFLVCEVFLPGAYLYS
# Method: as §1, §2
# [17] = molecular target: chorismate-pyruvate lyase of Pseudoalteromonas piscicida (Pseudoalteromonas piscicida, UniProt A0ABN5CDX6, M1V); test: as above; assay type: biochemical; details: cell lysate supernatant of strain HBA10
# chorismate-pyruvate lyase of Pseudoalteromonas piscicida, sequence (A0ABN5CDX6 1-160, stated change not applied): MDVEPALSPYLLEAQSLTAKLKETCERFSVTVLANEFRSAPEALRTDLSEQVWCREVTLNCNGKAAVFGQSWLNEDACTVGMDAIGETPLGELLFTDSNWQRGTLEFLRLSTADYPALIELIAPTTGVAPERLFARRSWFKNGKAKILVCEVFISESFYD
# Method: as §1, §2
# [18] = molecular target: chorismate-pyruvate lyase of Pseudomonas putida (Pseudomonas putida, UniProt Q88C66); test: as above; assay type: biochemical; details: cell lysate supernatant of strain HBA17
# chorismate-pyruvate lyase of Pseudomonas putida, sequence (Q88C66 whole entry): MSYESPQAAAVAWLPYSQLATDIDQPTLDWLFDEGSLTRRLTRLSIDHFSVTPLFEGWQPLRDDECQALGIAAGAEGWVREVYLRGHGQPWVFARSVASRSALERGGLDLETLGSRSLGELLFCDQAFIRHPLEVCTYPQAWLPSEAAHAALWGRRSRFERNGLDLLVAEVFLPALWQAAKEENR
# Method: as §1, §2
# [19] = molecular target: chorismate-pyruvate lyase of Shewanella putrefaciens (Shewanella putrefaciens, UniProt A0ABX8XB71); test: as above; assay type: biochemical; details: cell lysate supernatant of strain HBA20
# chorismate-pyruvate lyase of Shewanella putrefaciens, sequence (A0ABX8XB71 entry or part of it): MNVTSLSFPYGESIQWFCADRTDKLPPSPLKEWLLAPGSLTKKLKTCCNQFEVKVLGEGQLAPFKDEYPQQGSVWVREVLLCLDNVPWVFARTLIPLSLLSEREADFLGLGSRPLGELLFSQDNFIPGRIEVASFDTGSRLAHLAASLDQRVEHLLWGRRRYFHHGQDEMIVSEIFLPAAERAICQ
# Method: as §1, §2
# Escherichia coli JM109 = test: Growth inhibition test in aerobic culture (influence of 4-HBA); assay type: cell-based; details: LB liquid medium, 37° C., OD610
# Method: (§3) A growth inhibition test in aerobic culture was performed to examine the influence of 4-HBA on Corynebacterium glutamicum, Escherichia coli, Pseudomonas putida, and Rhodobacter sphaeroides. Pseudomonas putida S12, which was used for the test, is reported to be a solvent-resistant strain to produce 4-HBA via tyrosine.
# Escherichia coli JM109 was applied to LB agar medium (1% polypeptone, 0.5% yeast extract, 0.5% NaCl and 1.5% agar) and was left stand in the dark at 37° C. for 15 hours.
# An inoculation loop of the Escherichia coli JM109 grown on a plate as above was applied to LB liquid medium (1% polypeptone, 0.5% yeast extract, and 0.5% NaCl), and aerobic culture was performed with shaking at 37° C. for 13 hours.
# (§4) The Escherichia coli JM109 grown in the above conditions was inoculated into 100 mL of LB liquid medium in such a way that the initial bacterial cell concentration would be OD=0.05, 4-HBA was added at the same time in such a way that the final concentration would be 0, 100, or 200 mM, and aerobic culture was performed with shaking at 37° C. The growth of the bacterial cells was determined by absorbance measurement at OD610.
# Pseudomonas putida S12 = test: as above; assay type: cell-based; details: 200 mM 4-HBA, LB liquid medium, 30° C., OD610
# Method: as §3
# Pseudomonas putida S12 was applied to LB agar medium (1% polypeptone, 0.5% yeast extract, 0.5% NaCl and 1.5% agar) and was left stand in the dark at 30° C. for 15 hours.
# An inoculation loop of the Pseudomonas putida S12 grown on a plate as above was applied to LB liquid medium (1% polypeptone, 0.5% yeast extract, and 0.5% NaCl), and aerobic culture was performed with shaking at 30° C. for 13 hours.
# as §4, with “Pseudomonas putida S12” for “Escherichia coli JM109”, “OD610=0.05,” for “OD=0.05,”, “100, 200,” for “100,”, “300” for “200”, “30°” for “37°”
# Rhodobacter sphaeroides = test: as above; assay type: cell-based; details: LB liquid medium, 30° C., OD610
# Method: as §3
# Rhodobacter sphaeroides was applied to LB agar medium (1% polypeptone, 0.5% yeast extract, 0.5% NaCl and 1.5% agar) and was left stand in the dark at 30° C. for 20 hours.
# An inoculation loop of the Rhodobacter sphaeroides grown on a plate as above was applied to LB liquid medium (1% polypeptone, 0.5% yeast extract, and 0.5% NaCl), and aerobic culture was performed with shaking at 30° C. for 13 hours.
# as §4, with “Rhodobacter sphaeroides” for “Escherichia coli JM109”, “OD=0.1,” for “OD=0.05,”, “30°” for “37°”
# [20] = tested on: Corynebacterium glutamicum R; test: as above; assay type: cell-based; details: for Growth of Corynebacterium glutamicum: aerobic, A liquid medium, 33° C., OD610
# Method: as §3
# Corynebacterium glutamicum was applied to A agar medium (2 g of (NH2)2CO, 7 g of (NH4)2SO4, 0.5 g of KH2PO4, 0.5 g of K2HPO4, 0.5 g of MgSO4.7H2O, 1 mL of 0.06% (w/v) Fe2SO4.7H2O+0.042% (w/v) MnSO4.2H2O, 1 mL of 0.02% (w/v) biotin solution, 2 mL of 0.01% (w/v) thiamin solution, 2 g of yeast extract, 7 g of vitamin assay casamino acid, 40 g of glucose, and 15 g of agar were suspended in 1 L of distilled water) and was left stand in the dark at 33° C. for 15 hours.
# An inoculation loop of Corynebacterium glutamicum R strain grown on a plate as above was inoculated into a test tube containing 10 mL of A liquid medium (2 g of (NH2)2CO, 7 g of (NH4)2SO4, 0.5 g of KH2PO4, 0.5 g of K2HPO4, 0.5 g of MgSO4.7H2O, 1 mL of 0.06% (w/v) Fe2SO4.7H2O+0.042% (w/v) MnSO4.2H2O, 1 mL of 0.02% (w/v) biotin solution, 2 mL of 0.01% (w/v) thiamin solution, 2 g of yeast extract, 7 g of vitamin assay casamino acid, and 40 g of glucose were suspended in 1 L of distilled water) and was aerobically cultured with shaking at 33° C. for 15 hours.
# The Corynebacterium glutamicum R strain grown in the above conditions was inoculated into 10 mL of A liquid medium in such a way that the initial bacterial cell concentration would be OD610=0.05, 4-HBA was added at the same time in such a way that the final concentration would be 0, 100, 200, 250, or 300 mM, and aerobic culture was performed with shaking at 33° C. The growth of the bacterial cells was determined by absorbance measurement at OD610.
structure (smiles),measurement,setting,value
"O=C(O)c1ccc(O)cc1 [Strain 4-HBA, 4-hydroxybenzoic acid]",pIC50,[1],4.16
same,pIC50,[2],4.08
same,pIC50,[3],4.12
same,pIC50,[4],3.83
same,pIC50,[5],4.14
same,pIC50,[6],3.98
same,pIC50,[7],4.17
same,pIC50,[8],4.10
same,pIC50,[9],4.21
same,pIC50,[10],4.16
same,pIC50,[11],3.52
same,pIC50,[12],3.40
same,pIC50,[13],3.44
same,pIC50,[14],3.47
same,pIC50,[15],3.43
same,pIC50,[16],4.11
same,pIC50,[17],4.14
same,pIC50,[18],4.17
same,pIC50,[19],3.89
same,Growth of Escherichia coli,Escherichia coli JM109; 100 mM 4-HBA,significantly affected
same,Growth of Escherichia coli,Escherichia coli JM109; 200 mM 4-HBA,completely inhibited
same,Growth of Pseudomonas putida S12,Pseudomonas putida S12,completely inhibited
same,Growth of Rhodobacter sphaeroides,Rhodobacter sphaeroides; 100 mM 4-HBA,completely inhibited
same,Growth of Rhodobacter sphaeroides,Rhodobacter sphaeroides; 200 mM 4-HBA,completely inhibited
same,Growth of Corynebacterium glutamicum,[20]; 200 mM 4-HBA,able to grow
same,"Growth, % of the OD610 of wild strain","[20]; 250 mM 4-HBA, 28 hours after the start of the culture, same extent as in the presence of 200 mM 4-HBA, data not shown",about 65%
same,Growth of Corynebacterium glutamicum,[20]; 250 mM 4-HBA,able to grow
